Test results published in patent publication US6197774A, “Pyrimidine derivative” (Otsuka Pharmaceutical Co., Ltd., priority 1997, dated 2001).

What was measured:
[1] = tested on: formation of TNF-α in cell strain RAW 264.7; assay: Activity for inhibiting the formation of TNF-α in vitro (RAW 264.7 cells, ELISA); format: cell-based; conditions: Mus musculus, RAW264.7, control 100, LPS 100 ng/ml, 24 hours, read-out: Ratio of formed amount of TNF-α
Description: [Evaluation test of activity for inhibiting the formation of TNF-α in vitro]
(§1) Pyrimidine derivative obtained in Example 1 was used as test compound.
Cell strain RAW 264.7 (ATCC) derived from the macrophage of mouse was placed on each one of the wells on a microplate having 24-wells so as to put the cells in an amount of 3×10^5 cells/U (well). The cells were incubated for 24 hours in a phenol red free-RPMI-1640 culture medium (mfd. by GIBCO) to which 10% of equine serum (mfd. by Bio Whittaker), 100 U/ml of penicillin (mfd. by Dainippon Pharmaceutical Co., Ltd.) and 100 μg/ml of streptomycin (mfd. by Dainippon Pharmaceutical Co., Ltd.) were added.
Next, the equine serum was removed from the culture medium, and the reference culture medium as control was prepared by adding 2 mM of L-arginine (mfd. by Wako Pure Chemical Industries, Ltd.), 10 μM/ml of tetrahydrobiopterin (mfd. by ALEXIS) and 100 ng/ml of lipopolysaccharide (LPS)(mfd. by Sigma Chemical Co.) to a phenol red free-RPMI-1640 culture medium, so as to induce the formation of TNF-α.
On the other hand, the test culture medium, containing the test compound of Example 1 was prepared similarly as in the reference culture medium, except adding the test compound (1×10^-4, 1×10^-5 and 1×10^-6 M) dissolved in dimethyl sulfoxide (DMSO) at the same time of LPS-addition.
The concentration of TNF-α formed in the supernatant of each one of the culture media after 24 hour-incubation was measured by Factor-Test-X Mouse TNF-α ELISA Kit (mfd. by genzyme).

5-lipoxygenase = biological target: T1, 5-lipoxygenase (Rattus norvegicus, UniProt P12527); assay: Activity for inhibiting 5-lipoxygenase in vitro (crude enzyme from rat basophilic leukemia-1 cells, 5-HETE RIA); format: biochemical; conditions: 8 minutes at 25° C.
T1 construct: Thus obtained supernatant was collected and concentrated so as to obtain crude enzyme containing 5-lipoxygenase; host or cells: rat basophilic leukemia-1 cells
T1 sequence (P12527 1-673): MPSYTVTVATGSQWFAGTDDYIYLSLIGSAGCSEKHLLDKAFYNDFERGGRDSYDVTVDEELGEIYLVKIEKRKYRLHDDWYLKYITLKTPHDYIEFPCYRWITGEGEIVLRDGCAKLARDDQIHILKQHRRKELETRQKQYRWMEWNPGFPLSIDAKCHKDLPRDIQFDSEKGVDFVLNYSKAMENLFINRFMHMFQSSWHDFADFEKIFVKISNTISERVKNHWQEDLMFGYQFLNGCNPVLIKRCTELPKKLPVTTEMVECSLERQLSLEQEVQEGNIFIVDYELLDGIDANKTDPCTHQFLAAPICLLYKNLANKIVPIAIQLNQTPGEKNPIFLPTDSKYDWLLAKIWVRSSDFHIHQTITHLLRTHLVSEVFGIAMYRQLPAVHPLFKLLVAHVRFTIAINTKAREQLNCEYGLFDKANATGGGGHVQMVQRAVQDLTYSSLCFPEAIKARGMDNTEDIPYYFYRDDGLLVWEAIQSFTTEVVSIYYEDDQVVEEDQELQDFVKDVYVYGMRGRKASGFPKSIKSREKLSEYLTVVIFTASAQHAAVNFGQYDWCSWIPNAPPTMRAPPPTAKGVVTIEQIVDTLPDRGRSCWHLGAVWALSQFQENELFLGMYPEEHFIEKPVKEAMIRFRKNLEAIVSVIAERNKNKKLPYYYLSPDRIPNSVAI
Description: [Evaluation test of activity for inhibiting 5-lipoxygenase in vitro]
as §1
Test was referred to the methods as described in Proc. Natl. Acad. Sci. U.S.A., Vol. 81, pp. 689-693 (1984) and J. Biol. Chem., Vol. 260, pp. 11554--11559 (1985).
(1) Preparation of Crude Enzyme Containing 5-lipoxygenase
RBI-1 cells (rat basophilic leukemia-1, ATCC, 1×10^8 cells) in 5 ml of buffer solution (50 mM Tris/1 mM EDTA, pH 7.4) were lysed with nitrogen cavitation bomb (mfd. by PARR Instrument Company) under 750 psi for 20 min at 4° C. The solution were centrifuged with twice volume of 50 mM Tris/1 mM EDTA (pH 7.4) at 5000 rpm for 10 minutes at 4° C. The supernatant of the solution was taken and further centrifuged at 37,500 rpm for 90 minutes at 4° C. Thus obtained supernatant was collected and concentrated so as to obtain crude enzyme containing 5-lipoxygenase. Its protein concentration was determined with Protein assey kit (mfd. by Pierce).
(2) Evaluation of Activity for Inhibiting 5-lipoxygenase (RIA assay)
12.5 μl of Crude enzyme, 61.5 μl of 50 mM Tris-HCl (mfd. by Sigma Chemical Co.), 12.5 μl of 0.5 mM ATP (mfd. by Sigma Chemical Co.), and 12.5 μl of cofacter solution (50 mM Tris-HCl (pH 7.2, at 25° C.) containing 10 mM glutahion, 14 mM of indomethacin and 500 mM of CaCl2.2H2 O) were preincubated for […] at 25° C. for reference solution as control. On the other hand, the test solution containing the test compound of Example 1 was prepared similarly as in the reference solution, except adding 1 μl of the test compound (1×10^-4, 1×10^-5, and 1×10^-6 M).
25 μl of 0.07 mM Arachidonic acid (mfd. by Sigma Chemical Co.) was added each of the reference solution and test solutin to intiate the reaction, and incubated it for 8 minutes at 25° C. The reaction was terminated by adding 40 μl of citric acid (mfd. by Sigma Chemical Co.). […]
RIA assay was conducted by the 5-HETE [^3 H] […] RIA assay to determine the amount of 5-lipoxygenase by counting radioactivity on the liquid scintillation counter (mfd. by Beckman Co.). […]

**Q.** How did the activity at 100 µM ([1]; 1 × 10^-4 M) turn out when `COCc1cc(=O)n2ncc(-c3ccc(Sc4ccccc4)cc3)c2[nH]1` [Example 1, 4,7-dihydro-5-methoxymethyl-7-oxo-3-(4-phenylthiophenyl)pyrazolo[1,5-a]pyrimidine] was run?
**A.** 5.1%

**Q.** And the activity at 10 µM ([1]; 1 × 10^-5 M)?
**A.** 59.9%

**Q.** What about the activity at 1 µM ([1]; 1 × 10^-6 M) of the same compound?
**A.** 120%

**Q.** And the inhibition at 100 µM (5-lipoxygenase; 1 × 10^-4 M)?
**A.** 24.3%

**Q.** What about the inhibition at 10 µM (5-lipoxygenase; 1 × 10^-5 M) of the same compound?
**A.** 38.8%

**Q.** What about the inhibition at 1 µM (5-lipoxygenase; 1 × 10^-6 M) of the same compound?
**A.** 68%
